Laboratory results from EP4610269A1, “UROKINASE PLASMINOGEN ACTIVATOR SURFACE RECEPTOR (UPAR) LIGANDS FOR DIAGNOSTIC OR THERAPEUTIC USE” (3B Pharmaceuticals GmbH, priority 2024, dated 2025).
*1 amine or outer side, *2 acyl side, *3 side chain or, on linkers, in order; H or OH if unused. Where a SMILES comes first, the peptide text is derived from it. Bridges are numbered along the chain shown (N, C = ends). [ ]: non-standard residue; d: D form. The star is where a group is joined. DOTA = O=C(O)CN1CCN(CC(=O)O)CCN(CC(=O)*)CCN(CC(=O)O)CC1; Phe(4-Cl) = N[C@@H](Cc1ccc(Cl)cc1)C(=O)O; Pro(cis-4-F) = O=C(O)[C@@H]1C[C@H](F)CN1; Pro(4R-NH2) = N[C@H]1CN[C@H](C(=O)O)C1; 1Nal = N[C@@H](Cc1cccc2ccccc12)C(=O)O; Hyp = O=C(O)[C@@H]1C[C@@H](O)CN1; Pentanoyl(4-Me) = CC(C)CCC(=O)*; Cit = NC(=O)NCCC[C@H](N)C(=O)O; NMeL = CN[C@@H](CC(C)C)C(=O)O; Butoxycarbonyl = CCCCOC(=O)*; Suc = O=C(CCC(=O)[*:2])[*:1]; X9 = OC[C@H](CS[*:1])N[*:2]; hCys = N[C@@H](CCS)C(=O)O; Nva = CCC[C@H](N)C(=O)O; Pentanoyl = CCCCC(=O)*; Aib = CC(C)(N)C(=O)O; Ahx = NCCCCCC(=O)O

Legend:
[1] = target: T1, uPAR-expressing HEC-265 human endometrial adenocarcinoma cells (Homo sapiens, UniProt Q03405); test: Competitive FACS binding assay; details: pIC50 category of FACS binding
T1 construct: Cell surface uPAR-expressing HEC-265 human endometrial adenocarcinoma cells; host or cells: HEC-265
How it was run: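 HEC-265 cells incubated 1 h at 4 °C with 10 nM biotinylated uPAR peptide tracer plus increasing test compound, then stained with APC-streptavidin on ice. Median APC fluorescence by flow cytometry; 4PL fit gives pIC50.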

human uPAR (uPAR-Fc) = target: T2, human uPAR (uPAR-Fc) (Homo sapiens, UniProt Q03405); test: Surface plasmon resonance (SPR) assay, single cycle kinetics; assay type: binding; details: pKD category for uPAR SPR activity assay; uPAR-Fc on Protein A-Chip, 25°C; read-out: pKD CAT (converted)
T2 construct: comprising amino acids Leu23-Arg303 according to UniProt entry Q03405.1; purchased R&D Systems 10378-UK-100
How it was run: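 uPAR-Fc (Leu23-Arg303 extracellular domains, human IgG1 Fc) captured on Protein A chip to ~2000 RU; single-cycle kinetics at 25°C in HEPES running buffer pH 7.4 with 0.1% DMSO. KD from double-referenced sensorgrams fitted to 1:1 Langmuir model, reported as pKD.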

T1 sequence (Q03405 23-335): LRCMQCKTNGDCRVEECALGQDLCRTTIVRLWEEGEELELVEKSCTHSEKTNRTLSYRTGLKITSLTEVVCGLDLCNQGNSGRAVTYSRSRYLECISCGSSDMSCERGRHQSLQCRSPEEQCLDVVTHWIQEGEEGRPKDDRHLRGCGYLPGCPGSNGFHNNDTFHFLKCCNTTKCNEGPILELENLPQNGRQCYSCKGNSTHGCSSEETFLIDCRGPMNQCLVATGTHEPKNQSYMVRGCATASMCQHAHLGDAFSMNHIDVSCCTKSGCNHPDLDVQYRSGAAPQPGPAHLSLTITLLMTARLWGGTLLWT
T2 sequence (Q03405 23-303): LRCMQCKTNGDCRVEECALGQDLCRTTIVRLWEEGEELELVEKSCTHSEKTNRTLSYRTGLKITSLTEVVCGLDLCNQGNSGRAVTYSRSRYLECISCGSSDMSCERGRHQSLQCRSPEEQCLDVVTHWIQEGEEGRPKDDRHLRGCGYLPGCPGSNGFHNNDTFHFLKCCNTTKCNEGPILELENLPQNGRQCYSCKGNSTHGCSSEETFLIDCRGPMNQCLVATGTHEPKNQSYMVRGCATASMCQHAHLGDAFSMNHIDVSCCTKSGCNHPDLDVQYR

SMILES | IC50 [1] [µM] | Kd (human uPAR (uPAR-Fc)) [µM]
CC[C@H](C)[C@@H]1NC(=O)[C@H](C)NC(=O)[C@@H]2CCCN2C(=O)[C@H](Cc2ccccc2)NC(=O)[C@H](Cc2ccc(O)cc2)NC(=O)[C@H](CCC(N)=O)NC(=O)[C@H](CCCNC(=N)N)NC(=O)[C@@H](NC(=O)[C@H](CC(C)C)NC(=O)[C@H](CC(=O)O)NC(C)=O)CSSC[C@@H](C(N)=O)NC(=O)[C@H](CC(C)C)NC1=O [UPAR-290, Ac-Asp-Leu-[Cys-Arg-Gln-Tyr-Phe-Pro-Ala-Ile-Leu-Cys]-NH2] (Ac-DLCRQYFPAILC-NH2; disulfide 3-12) | ≤ 0.01 | < 0.00158
CC[C@H](C)[C@@H]1NC(=O)[C@@H](C)NC(=O)[C@@H]2CCCN2C(=O)[C@H](Cc2ccccc2)NC(=O)[C@H](Cc2ccc(O)cc2)NC(=O)[C@H](CCC(N)=O)NC(=O)[C@H](CCCNC(=N)N)NC(=O)[C@@H](NC(=O)[C@H](CC(C)C)NC(=O)CCCCCNC(=O)CN2CCN(CC(=O)O)CCN(CC(=O)O)CCN(CC(=O)O)CC2)CSSC[C@@H](C(N)=O)NC(=O)[C@H](CC(C)C)NC1=O [UPAR-291, DOTA-Ahx-Leu-[Cys-Arg-Gln-Tyr-Phe-Pro-ala-Ile-Leu-Cys]-NH2] ({DOTA-Ahx}-LCRQYFP[dA]ILC-NH2; disulfide 2-11) | ≤ 0.01 | < 0.00158
CCCCC(=O)N[C@H]1CSSC[C@@H](CO)NC(=O)[C@H](CCC)NC(=O)[C@H]([C@@H](C)CC)NC(=O)[C@@H]2C[C@@H](O)CN2C(=O)[C@@H]2CCCN2C(=O)[C@H](Cc2ccccc2)NC(=O)[C@H](Cc2ccc(O)cc2)NC(=O)[C@H](CCC(N)=O)NC(=O)[C@H](CCCNC(N)=O)NC1=O [UPAR-292, Pent-[Cys-Cit-Gln-Tyr-Phe-Pro-Hyp-Ile-Nva-Cysol]-OH] (Pentanoyl-C[Cit]QYFP[Hyp]I[Nva]; linker 1-C via X9) | ≤ 0.01 | < 0.00158
CC[C@H](C)[C@@H]1NC(=O)[C@@H]2C[C@@H](N)CN2C(=O)[C@@H]2CCCN2C(=O)[C@H](Cc2ccccc2)NC(=O)[C@H](Cc2ccc(O)cc2)NC(=O)[C@H](CCC(N)=O)NC(=O)[C@H](CCCNC(N)=O)NC(=O)[C@@H](NC(=O)CCC(C)C)CSSC[C@@H](C(N)=O)NC(=O)[C@H](CC(C)C)NC1=O [UPAR-295, iHex-[Cys-Cit-Gln-Tyr-Phe-Pro-Tap-Ile-Leu-Cys]-NH2] ({Pentanoyl(4-Me)}-C[Cit]QYFP[Pro(4R-NH2)]ILC-NH2; disulfide 1-10) | ≤ 0.01 | < 0.00158
CCC[C@H](NC(=O)CCC(=O)O)C(=O)N[C@H]1CSSC[C@@H](C(N)=O)NC(=O)[C@H](CCC)NC(=O)[C@H]([C@@H](C)CC)NC(=O)[C@@H]2C[C@@H](O)CN2C(=O)[C@@H]2CCCN2C(=O)[C@H](Cc2ccccc2)NC(=O)[C@H](Cc2ccc(O)cc2)NC(=O)[C@H](CCCCNC(=O)CN2CCN(CC(=O)O)CCN(CC(=O)O)CCN(CC(=O)O)CC2)NC(=O)[C@H]([C@@H](C)O)NC1=O [UPAR-297, Succinyl-Nva-[Cys-Thr-Lys(DOTA)-Tyr-Phe-Pro-Hyp-Ile-Nva-Cys]-NH2] (Suc-[Nva]CTK(DOTA)YFP[Hyp]I[Nva]C-NH2; disulfide 2-11) | ≤ 0.01 | < 0.00158
CCCCC(=O)N[C@H]1CSSC[C@@H](C(N)=O)NC(=O)[C@H](CCC)NC(=O)[C@H]([C@@H](C)CC)NC(=O)[C@@H]2C[C@@H](O)CN2C(=O)[C@H](CCCCN)NC(=O)[C@H](Cc2ccccc2)NC(=O)[C@H](Cc2ccc(O)cc2)NC(=O)[C@H](CCC(N)=O)NC(=O)[C@H](CCCNC(=N)N)NC1=O [UPAR-298, Pent-[Cys-Arg-Gln-Tyr-Phe-Lys-Hyp-Ile-Nva-Cys]-NH2] (Pentanoyl-CRQYFK[Hyp]I[Nva]C-NH2; disulfide 1-10) | 0.0398 to 0.1 | 0.01 to 0.1
CCCCC(=O)N[C@H]1CSSC[C@@H](C(N)=O)NC(=O)[C@H](CCC)NC(=O)[C@H]([C@@H](C)CC)NC(=O)C(C)(C)NC(=O)[C@@H]2CCCN2C(=O)[C@H](Cc2ccccc2)NC(=O)[C@H](Cc2ccc(O)cc2)NC(=O)[C@H](CCCCNC(=O)CN2CCN(CC(=O)O)CCN(CC(=O)O)CCN(CC(=O)O)CC2)NC(=O)[C@H](CCCNC(N)=O)NC1=O [UPAR-299, Pent-[Cys-Cit-Lys(DOTA)-Tyr-Phe-Pro-Aib-Ile-Nva-Cys]-NH2] (Pentanoyl-C[Cit]K(DOTA)YFP[Aib]I[Nva]C-NH2; disulfide 1-10) | ≤ 0.01 | < 0.00158
CCCCC(=O)N[C@H]1CCSSC[C@@H](C(N)=O)NC(=O)[C@H](CCC)NC(=O)[C@H]([C@@H](C)CC)NC(=O)[C@@H]2C[C@@H](O)CN2C(=O)[C@@H]2CCCN2C(=O)[C@H](Cc2ccccc2)NC(=O)[C@H](Cc2ccc(O)cc2)NC(=O)[C@H](CCC(N)=O)NC(=O)[C@H](CCCNC(=N)N)NC1=O [UPAR-300, Pent-[Hcy-Arg-Gln-Tyr-Phe-Pro-Hyp-Ile-Nva-Cys]-NH2] (Pentanoyl-[hCys]RQYFP[Hyp]I[Nva]C-NH2; disulfide 1-10) | 0.0126 to 0.0316 | 0.00158 to 0.01
CCCCC(=O)N[C@H]1CSSC[C@@H](C(N)=O)NC(=O)[C@H](CCC)NC(=O)[C@H]([C@@H](C)CC)NC(=O)[C@@H]2C[C@@H](O)CN2C(=O)[C@H](CC(C)C)N(C)C(=O)[C@H](Cc2ccccc2)NC(=O)[C@H](Cc2ccc(O)cc2)NC(=O)[C@H](CCC(N)=O)NC(=O)[C@H](CCCNC(=N)N)NC1=O [UPAR-302, Pent-[Cys-Arg-Gln-Tyr-Phe-Nml-Hyp-Ile-Nva-Cys]-NH2] (Pentanoyl-CRQYF[NMeL][Hyp]I[Nva]C-NH2; disulfide 1-10) | 0.0126 to 0.0316 | 0.00158 to 0.01
CCCCOC(=O)N[C@H]1CSSC[C@@H](C(N)=O)NC(=O)[C@H](CCC)NC(=O)[C@H]([C@@H](C)CC)NC(=O)[C@@H]2C[C@@H](O)CN2C(=O)[C@@H]2C[C@H](F)CN2C(=O)[C@H](Cc2ccc(Cl)cc2)NC(=O)[C@H](Cc2ccc(O)cc2)NC(=O)[C@H](CCCCNC(=O)CN2CCN(CC(=O)O)CCN(CC(=O)O)CCN(CC(=O)O)CC2)NC(=O)[C@H](CCCNC(N)=O)NC1=O [UPAR-304, Butoc-[Cys-Cit-Lys(DOTA)-Tyr-Pcf-4Cfp-Hyp-Ile-Nva-Cys]-NH2] (Butoxycarbonyl-C[Cit]K(DOTA)Y[Phe(4-Cl)][Pro(cis-4-F)][Hyp]I[Nva]C-NH2; disulfide 1-10) | ≤ 0.01 | < 0.00158

Continued, values first:

IC50 [1] [µM] | Kd (human uPAR (uPAR-Fc)) [µM] | SMILES
≥ 0.126 | > 0.1 | CC[C@H](C)[C@@H]1NC(=O)[C@H]2CCCN2C(=O)[C@@H]2CCCN2C(=O)[C@H](Cc2ccccc2)NC(=O)[C@H](Cc2ccc(O)cc2)NC(=O)[C@H](CCC(N)=O)NC(=O)[C@H](CCCNC(N)=O)NC(=O)[C@@H](NC(=O)CCC(C)C)CSSC[C@@H](C(N)=O)NC(=O)[C@H](CC(C)C)NC1=O [UPAR-305, iHex-[Cys-Cit-Gln-Tyr-Phe-Pro-pro-Ile-Leu-Cys]-NH2] ({Pentanoyl(4-Me)}-C[Cit]QYFP[dP]ILC-NH2; disulfide 1-10)
≤ 0.01 | < 0.00158 | CC[C@H](C)[C@@H]1NC(=O)[C@@H]2C[C@H](F)CN2C(=O)[C@@H]2CCCN2C(=O)[C@H](Cc2ccccc2)NC(=O)[C@H](Cc2ccc(O)cc2)NC(=O)[C@H](CCC(N)=O)NC(=O)[C@H](CCCNC(N)=O)NC(=O)[C@@H](NC(=O)CCC(C)C)CSSC[C@@H](C(N)=O)NC(=O)[C@H](CC(C)C)NC1=O [UPAR-307, iHex-[Cys-Cit-Gln-Tyr-Phe-Pro-4Cfp-Ile-Leu-Cys]-NH2] ({Pentanoyl(4-Me)}-C[Cit]QYFP[Pro(cis-4-F)]ILC-NH2; disulfide 1-10)
≤ 0.01 | 0.00158 to 0.01 | CCCCC(=O)N[C@H]1CSSC[C@@H](C(N)=O)NC(=O)[C@H](CCC)NC(=O)[C@H]([C@@H](C)CC)NC(=O)[C@@H]2C[C@@H](O)CN2C(=O)[C@@H]2CCCN2C(=O)[C@H](Cc2c[nH]c3ccccc23)NC(=O)[C@H](Cc2ccc(O)cc2)NC(=O)[C@H](CCC(N)=O)NC(=O)[C@H](CCCNC(=N)N)NC1=O [UPAR-308, Pent-[Cys-Arg-Gln-Tyr-Trp-Pro-Hyp-Ile-Nva-Cys]-NH2] (Pentanoyl-CRQYWP[Hyp]I[Nva]C-NH2; disulfide 1-10)
≤ 0.01 | < 0.00158 | CCCCC(=O)N[C@H]1CSSC[C@@H](C(N)=O)NC(=O)[C@H](CCC)NC(=O)[C@H]([C@@H](C)CC)NC(=O)[C@@H]2C[C@@H](O)CN2C(=O)[C@@H]2CCCN2C(=O)[C@H](Cc2ccccc2)NC(=O)[C@H](Cc2ccc(O)cc2)NC(=O)[C@H](CCC(N)=O)NC(=O)[C@H](CCCNC(N)=O)NC1=O [UPAR-309, Pent-[Cys-Cit-Gln-Tyr-Phe-Pro-Hyp-Ile-Nva-Cys]-NHz] (Pentanoyl-C[Cit]QYFP[Hyp]I[Nva]C-NH2; disulfide 1-10)
≤ 0.01 | < 0.00158 | CC[C@H](C)[C@@H]1NC(=O)[C@@H](C)NC(=O)[C@@H]2CCCN2C(=O)[C@H](Cc2cccc3ccccc23)NC(=O)[C@H](Cc2ccc(O)cc2)NC(=O)[C@H](CCC(N)=O)NC(=O)[C@H](CCCNC(N)=O)NC(=O)[C@@H](NC(=O)CCC(C)C)CSSC[C@@H](C(N)=O)NC(=O)[C@H](CC(C)C)NC1=O [UPAR-310, iHex-[Cys-Cit-Gln-Tyr-1Ni-Pro-ala-Ile-Leu-Cys]-NH2] ({Pentanoyl(4-Me)}-C[Cit]QY[1Nal]P[dA]ILC-NH2; disulfide 1-10)
≤ 0.01 | 0.00158 to 0.01 | CC[C@H](C)[C@@H]1NC(=O)[C@H](C)NC(=O)[C@@H]2CCCN2C(=O)[C@H](Cc2ccccc2)NC(=O)[C@H](Cc2ccc(O)cc2)NC(=O)[C@H](CCSC)NC(=O)[C@H](CCCNC(=N)N)NC(=O)[C@@H](NC(=O)[C@H](CC(C)C)NC(=O)[C@H](CC(=O)O)NC(=O)[C@@H](N)CCSC)CSSC[C@@H](C(N)=O)NC(=O)[C@H](CC(C)C)NC1=O [UPAR-312, H-Met-Asp-Leu-[Cys-Arg-Met-Tyr-Phe-Pro-Ala-Ile-Leu-Cys]-NH2] (H-MDLCRMYFPAILC-NH2; disulfide 4-13)
